# Laboratory results taken from paper PMC3794927, “A Novel Antidiabetic Drug, Fasiglifam/TAK-875, Acts as an Ago-Allosteric Modulator of FFAR1” (PLoS ONE, 2013).
# Like-named read-outs stand apart in the source and are kept apart here.
# Assays:
# [1] = test system: FFAR1 H137A and L186A mutants; test: Ca2+ influx assay, FFAR1 point mutants in transfected HEK293T cells; format: cell-based; conditions: for change of EC50 in mutants versus wild-type: range over fasiglifam and GW9508 and both mutants
# Method: (§1) FLAG-tagged FFAR1 was constructed using a two-step procedure. Initially, untagged FFAR1-pcDNA3.1 was amplified using the forward primer ([…]) and the reverse primer ([…]) to insert a FLAG epitope at the N terminus of the receptor. Following this, the polymerase chain reaction (PCR) product was purified and ligated into a pcDNA3.1 vector. Mutations were made using the QuikChange Site-Directed Mutagenesis Kit (Stratagene) and verified by sequencing.
# (§2) For stable CHO cell lines, cells were seeded in black-walled clear-bottomed 96-well cell culture plates (Costar) and incubated overnight in 5% CO2 at 37°C. Otherwise, HEK293T cells were transiently transfected with expression plasmids using Trans-IT (Mirus) or Lipofectamine 2000, followed by plating in poly-D-lysine-coated black clear 96-well plates (BD Falcon) and incubated for 2 days. These cells were then incubated at 37°C for 1 h in HEPES-buffered Hank’s balanced salt solution (pH 7.4) containing 2.5 mM probenecid, 1% FBS, and 4 µM fluo-3 AM (Dojindo). Following this, the cells were washed four times with the solution without fluo-3 AM. Intracellular Ca^2+ concentrations were measured before and after adding samples using FLIPR (Molecular Devices). Assays were performed in the absence of bovine serum albumin (BSA). EC50, 95% confidence interval and Emax values for each curve were calculated by data analysis using 4-parameter logistic equation in Prism 5 software (GraphPad Software).
# [2] = test system: FFAR1 R183A and R258A mutants; test: as above; format: cell-based
# Method: as §1, §2
# hFFAR1 [3] = target: T1, hFFAR1 (Homo sapiens, UniProt O14842); test: Ca2+ mobilization assay (FLIPR) in CHO cells stably expressing hFFAR1; format: cell-based; conditions: for agonistic activity, Ca2+ influx: hFFAR1/CHO cells (clone #104)
# T1 construct: expressed in transfected cells
# Method: Cells were selected by culturing in nucleotide-free alpha-minimum essential medium (α-MEM; Invitrogen) supplemented with 10% dialyzed and heat-inactivated fetal bovine serum (FBS; Invitrogen), 100 IU/mL penicillin, and 100 µg/mL streptomycin (Invitrogen). […] The murine pancreatic β cell line MIN6 cells were kindly provided by Dr. Miyazaki. […] Cells were cultured in a humidified atmosphere containing 5% CO2/95% air at 37°C.
# as §2, with “(BSA).” for “(BSA). EC50, 95% confidence interval and Emax values for each curve were calculated by data analysis using 4-parameter logistic equation in Prism 5 software (GraphPad Software).”
# MIN6 cells [4] = test: Insulin secretion assay in MIN6 cells; format: cell-based, mouse; conditions: 16 mM glucose
# Method: MIN6 cells were seeded at a density of 6 × 10^4 cells/well in 96-well plates (BD Falcon), and cells were cultured in the growth medium described above for 2 days before experiments. After discarding the medium, cells were preincubated for 2 h at 37°C with 200 µL of Krebs-Ringer bicarbonate–HEPES (KRBH) buffer (116 mmol/L NaCl, 4.7 mmol/L KCl, 1.17 mmol/L KH2PO4, 1.17 mmol/L MgSO4, 25 mmol/L NaHCO3, 2.52 mmol/L CaCl2, and 24 mmol/L HEPES) containing 0.2% BSA and 1 mmol/L glucose. After discarding the preincubation buffer, KRBH containing 0.2% BSA, 16 mmol/L glucose, and stimulators as shown was added and the plate was incubated for 2 h at 37°C. After incubation, supernatants from each well were collected and secreted insulin concentrations were measured using alphaLISA (PerkinElmer) according to the manufacturer’s instruction.
# MIN6 cells [5] = conditions: mouse, 72 h, 1 mM
# Method: (§3) Caspase 3/7 activity in MIN6 cells was measured according to a previously described method (8). In brief, MIN6 cells were seeded at a density of 2 × 10^4 cells/well in a 96-well black clear plate (CORNING) and cultured overnight. After discarding the medium, 1% BSA, palmitic acid–BSA conjugate (0.25, 0.5, and 1 mM) or γ-LA–BSA conjugate (0.25, 0.5, and 1 mM) in combination with 0.1% DMSO or fasiglifam (0.1, 1, and 10 µM) were added to the plates and cultured for 72 h. After incubation, caspase 3/7 activity was measured using the Apo-one Homogeneous Caspase 3/7 assay (Promega) according to the manufacturers’ instructions. Fluorescent intensity was measured at excitation and emission wavelengths of 485 nm and 535 nm, respectively (Wallac 1420 ARVO SX Multilabel Counter; PerkinElmer).
# N-STZ-1.5 rats = test: Oral glucose tolerance test in diabetic N-STZ-1.5 rats; format: in vivo, rat
# Method: Blood samples were collected from the tail vein before drug administration (pre), before glucose load (time 0), and 10, 30, 60, and 120 min after the glucose load. Plasma glucose and FFA levels were measured using Autoanalyzer 7080 (Hitachi, Japan), and insulin levels were measured using the Rat Insulin ELISA Kit (Morinaga, Japan). All procedures were conducted according to the Experimental Animal Care and Use Committee of Takeda Pharmaceutical Company Limited.
# [6] = test system: FFAR1-knockout mouse islets; test: Insulin secretion in FFAR1-knockout mouse islets; format: cell-based; conditions: 16 mM glucose
# MIN6 cells [7] = test: Caspase 3/7 activity in MIN6 cells (lipotoxicity); conditions: 72-h exposure, palmitic acid 0.25–1 mM
# Method: as §3
# [8] = test system: FFAR1 Y91A and N244A mutants; test: Ca2+ influx assay, FFAR1 point mutants in transfected HEK293T cells; format: cell-based
# Method: as §1, §2
# hFFAR1 [9] = target: T1, hFFAR1; test: Ca2+ influx in HEK293T cells transiently transfected with varying amounts of hFFAR1 plasmid; format: cell-based; conditions: 100 ng to 1 ng hFFAR1 plasmid, compared with γ-LA
# Method: as §2
# Supplementary file pone.0076280.s002.tif: Figure S2 Relative efficacy of fasiglifam is affected by FFAR1/GPR40 expression levels in transient HEK293T cells. Relative Ca^2+ influx activities of fasiglifam and γ-linolenic acid (γ-LA) were measured in HEK293T cells transiently transfected with 100 ng (A), 30 ng (B), 10 ng (C), 3 ng (D), and 1 ng (E) of hFFAR1 expression plasmids. Error bars indicate s.e.m. […]
# wild-type mouse islets = test: Insulin secretion in wild-type mouse islets; format: cell-based; conditions: 16 mM glucose
# rat insulinoma cells = test system: rat insulinoma cells; design: method as in PMID 21752941; conditions: prolonged exposure to fasiglifam alone; cited from earlier work
# mFFAR1 = target: T2, mFFAR1 (Mus musculus, UniProt Q76JU9); test: Ca2+ mobilization assay (FLIPR) in CHO cells stably expressing mFFAR1; format: cell-based
# T2 construct: expressed in transfected cells
# Method: To establish CHO cells (dhfr−) stably expressing hFFAR1 or mFFAR1, CHO/dhfr− (ATCC catalog # CRL-9096) cells were transfected with hFFAR1-pAKKO-111H or mFFAR1-pAKKO-111H plasmid using Lipofectamine 2000 (Invitrogen). Cells were selected by culturing in nucleotide-free alpha-minimum essential medium (α-MEM; Invitrogen) supplemented with 10% dialyzed and heat-inactivated fetal bovine serum (FBS; Invitrogen), 100 IU/mL penicillin, and 100 µg/mL streptomycin (Invitrogen). HEK293T (ATCC catalog # CRL-11268) cells were cultured in Dulbecco’s modified Eagle’s medium (DMEM, Invitrogen) supplemented with 10% heat-inactivated FBS, 100 IU/mL penicillin, and 100 µg/mL streptomycin. The murine pancreatic β cell line MIN6 cells were kindly provided by Dr. Miyazaki. MIN6 cells were grown in DMEM containing 10% heat-inactivated FBS, 100 IU/mL penicillin, 100 µg/mL streptomycin, and 55 µmol/L 2-mercaptoethanol (Invitrogen). Cells were cultured in a humidified atmosphere containing 5% CO2/95% air at 37°C.
# For stable CHO cell lines, cells were seeded in black-walled clear-bottomed 96-well cell culture plates (Costar) and incubated overnight in 5% CO2 at 37°C. […] Intracellular Ca^2+ concentrations were measured before and after adding samples using FLIPR (Molecular Devices). […]
# T1 sequence (O14842 whole entry): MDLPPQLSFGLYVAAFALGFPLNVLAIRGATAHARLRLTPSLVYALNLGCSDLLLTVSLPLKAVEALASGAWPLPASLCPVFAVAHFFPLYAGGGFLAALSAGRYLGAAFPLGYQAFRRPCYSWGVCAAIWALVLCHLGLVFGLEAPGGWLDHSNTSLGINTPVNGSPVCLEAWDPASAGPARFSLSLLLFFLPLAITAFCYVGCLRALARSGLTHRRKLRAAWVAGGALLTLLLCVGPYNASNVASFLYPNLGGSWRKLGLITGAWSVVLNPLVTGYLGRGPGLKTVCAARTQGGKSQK
# T2 sequence (Q76JU9 whole entry): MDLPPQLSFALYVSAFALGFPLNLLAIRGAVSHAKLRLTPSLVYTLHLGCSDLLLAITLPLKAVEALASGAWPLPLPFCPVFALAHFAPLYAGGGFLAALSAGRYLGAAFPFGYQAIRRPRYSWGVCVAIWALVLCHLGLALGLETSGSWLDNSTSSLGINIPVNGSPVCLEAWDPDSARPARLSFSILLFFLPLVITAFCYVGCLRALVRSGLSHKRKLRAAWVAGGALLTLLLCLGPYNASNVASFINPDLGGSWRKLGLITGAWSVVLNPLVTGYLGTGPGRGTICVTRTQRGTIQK
compound,measurement,setting,value
"CCCCC/C=C\C/C=C\C/C=C\CCCCC(=O)O [γ-LA, γ-linolenic acid]",activity in mutants versus wild-type,[1],remained almost unchanged
same,Ca2+ influx response of mutants,[2],relatively less affected
same,"agonistic activity, Ca2+ influx",hFFAR1 [3],full agonistic activity
same,EC50,"hFFAR1 [3]; hFFAR1/CHO clone #2, without fasiglifam, read-out: EC50 of γ-LA response (Ca2+ influx)",5.39 µM
same,"insulin secretion, compound alone",MIN6 cells [4]; 0.2% BSA,could not significantly potentiate insulin secretion
same,caspase 3/7 activity,MIN6 cells [5],significant enhancements of caspase 3/7 activity
Cc1cnc(C(=O)O)c[n+]1[O-] [acipimox],plasma FFA levels,"N-STZ-1.5 rats; acipimox 30 mg/kg oral, N-STZ-1.5 rats, OGTT",rapid decrease
same,glucose tolerance,"N-STZ-1.5 rats; acipimox alone 30 mg/kg, OGTT, N-STZ-1.5 rats",improved glucose tolerance
same,plasma FFA level after reduction with acipimox,"N-STZ-1.5 rats; diabetic rats, acipimox",approximately 0.2 mEq/L
CCC1=C(C)CN(C(=O)NCCc2ccc(S(=O)(=O)NC(=O)N[C@H]3CC[C@H](C)CC3)cc2)C1=O [glimepiride],insulinotropic effect in FFAR1-knockout islets,[6],not affected
CCCCCCCCCCCCCC(=O)O [myristic acid],"agonistic activity, Ca2+ influx",hFFAR1 [3],partial activities
CCCCCCCCCCCCCCCC(=O)O [palmitic acid],caspase 3/7 activity,MIN6 cells [7],increased caspase 3/7 activity in a dose-dependent manner
same,"agonistic activity, Ca2+ influx",hFFAR1 [3],partial activities
"Cc1cc(OCCCS(C)(=O)=O)cc(C)c1-c1cccc(COc2ccc3c(c2)OC[C@H]3CC(=O)O)c1.Cc1cc(OCCCS(C)(=O)=O)cc(C)c1-c1cccc(COc2ccc3c(c2)OC[C@H]3CC(=O)O)c1.O [fasiglifam, [(3S)-6-({2′,6′-dimethyl-4′-[3-(methylsulfonyl)propoxy]biphenyl-3-yl}methoxy)-2,3-dihydro-1-benzofuran-3-yl] acetic acid hemihydrate]",change of EC50 in mutants versus wild-type,[1],7.7- to 130 fold
same,Ca2+ influx response of mutants,[2],almost unresponsive
same,effect of mutations on potency,[8],more drastic
same,insulinotropic effect in FFAR1-knockout islets,[6],completely abolished
same,insulinotropic action in acipimox-treated rats,"N-STZ-1.5 rats; fasiglifam 10 mg/kg + acipimox 30 mg/kg, OGTT",significantly suppressed
same,plasma insulin (insulinotropic effect) versus vehicle,"N-STZ-1.5 rats; fasiglifam alone 10 mg/kg oral, at 0, 10, and 30 min of OGTT",significant insulinotropic effects
same,"agonistic activity, Ca2+ influx",hFFAR1 [3],higher potency than FFAs
same,effect of simultaneous γ-LA on fasiglifam Ca2+ activity,"hFFAR1 [3]; hFFAR1/CHO clone #2, increasing doses of γ-LA",remarkable potentiation
same,maximal response as amount of transfection plasmid decreased,hFFAR1 [9],dramatically decreased
same,effect of γ-LA on insulinotropic activity of fasiglifam,wild-type mouse islets,dramatic improvement
same,effect on apoptosis,rat insulinoma cells,no effect on apoptosis
same,increase in the maximal response of fasiglifam (insulin secretion) by γ-LA,MIN6 cells [4]; γ-LA 100 µM,1.5–2 fold
same,"Emax, Ca2+ mobilization",mFFAR1,lower Emax than γ-LA
O=C(O)CCc1ccc(NCc2cccc(Oc3ccccc3)c2)cc1 [GW9508],change of EC50 in mutants versus wild-type,[1],7.7- to 130 fold
same,Ca2+ influx response of mutants,[2],almost completely unresponsive
same,effect of mutations on potency,[8],more drastic
